Measured values as given in patent US9777020B2, “Furo-3-carboxamide derivatives and methods of use” (AbbVie Inc., priority 2014, dated 2017).

Target: TrkA (Homo sapiens (Human), UniProt P04629)
Test: TrkA kinase HTRF enzyme inhibition assay
Assay type: biochemical
Conditions: TrkA pre-incubated with 200 μM ATP
In short: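 HTRF ratio read-out of biotin-peptide (125 nM) phosphorylation, 1 h reaction after TrkA (2-10 nM) auto-activation with ATP (200 μM) for 20 min and 10 min compound pre-incubation in 50 mM HEPES pH 7.4 with MgCl2/MnCl2. Percent inhibition from initial rates in duplicate, fitted to single-site equation for IC50.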

Sequence of TrkA (P04629 33-796): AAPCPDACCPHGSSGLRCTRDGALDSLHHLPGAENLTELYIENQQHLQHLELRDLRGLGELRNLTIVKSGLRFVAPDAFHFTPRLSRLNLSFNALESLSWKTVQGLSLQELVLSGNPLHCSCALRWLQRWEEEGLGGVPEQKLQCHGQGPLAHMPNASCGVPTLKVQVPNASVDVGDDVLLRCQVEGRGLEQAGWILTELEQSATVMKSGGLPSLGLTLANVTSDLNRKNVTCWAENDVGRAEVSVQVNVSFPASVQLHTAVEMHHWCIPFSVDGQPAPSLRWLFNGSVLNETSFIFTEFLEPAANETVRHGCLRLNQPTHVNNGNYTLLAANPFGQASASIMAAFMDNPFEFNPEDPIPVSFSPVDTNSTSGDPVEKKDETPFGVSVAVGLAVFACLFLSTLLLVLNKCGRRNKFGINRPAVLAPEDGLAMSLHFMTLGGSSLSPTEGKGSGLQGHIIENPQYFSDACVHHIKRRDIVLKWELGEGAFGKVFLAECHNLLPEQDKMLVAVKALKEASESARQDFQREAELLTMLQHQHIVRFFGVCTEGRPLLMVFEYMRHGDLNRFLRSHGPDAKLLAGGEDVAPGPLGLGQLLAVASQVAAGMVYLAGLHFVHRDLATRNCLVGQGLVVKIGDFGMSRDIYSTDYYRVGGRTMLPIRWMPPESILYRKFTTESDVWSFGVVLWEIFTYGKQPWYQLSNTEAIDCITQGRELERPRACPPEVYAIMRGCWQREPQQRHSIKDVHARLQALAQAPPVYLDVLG

SMILES	IC50 [µM]
CC(C)Oc1nc(N2C[C@H]3CCN(C(=O)N4CCN(C)CC4)[C@H]3C2)ccc1NC(=O)c1coc2c1C(=O)NC(C)(C)C2 [Example 132, N-{2-isopropoxy-6-[(3aR,6aR)-1-[(4-methylpiperazin-1-yl)carbonyl]hexahydropyrrolo[3,4-b]pyrrol-5(1H)-yl]pyridin-3-yl}-6,6-dimethyl-4-oxo-4,5,6,7-tetrahydrofuro[3,2-c]pyridine-3-carboxamide]	0.0069
CC(=O)N1CCN(c2ccc(NC(=O)c3coc4c3C(=O)NC(C)(C)C4)c(OC(C)C)n2)C[C@H]1CO [Example 133, N-{6-[(3S)-4-acetyl-3-(hydroxymethyl)piperazin-1-yl]-2-isopropoxypyridin-3-yl}-6,6-dimethyl-4-oxo-4,5,6,7-tetrahydrofuro[3,2-c]pyridine-3-carboxamide]	0.0033
CC(=O)N1CCN(c2ccc(NC(=O)c3coc4c3C(=O)NC(C)(C)C4)c(OC(C)C)n2)[C@H](CO)C1 [Example 134, N-{6-[(2S)-4-acetyl-2-(hydroxymethyl)piperazin-1-yl]-2-isopropoxypyridin-3-yl}-6,6-dimethyl-4-oxo-4,5,6,7-tetrahydrofuro[3,2-c]pyridine-3-carboxamide]	0.0039
CC(C)Oc1nc(N2CCN(C(=O)N3CCOCC3)C[C@H]2CO)ccc1NC(=O)c1coc2c1C(=O)NC(C)(C)C2 [Example 135, N-{6-[(2S)-2-(hydroxymethyl)-4-(morpholin-4-ylcarbonyl)piperazin-1-yl]-2-isopropoxypyridin-3-yl}-6,6-dimethyl-4-oxo-4,5,6,7-tetrahydrofuro[3,2-c]pyridine-3-carboxamide]	0.0023
CC(=O)N1CCN(c2ccc(NC(=O)c3coc4c3C(=O)NC(C)(C)C4)c(OC(C)C)n2)C[C@@H]1CO [Example 138, N-{6-[(3R)-4-acetyl-3-(hydroxymethyl)piperazin-1-yl]-2-isopropoxypyridin-3-yl}-6,6-dimethyl-4-oxo-4,5,6,7-tetrahydrofuro[3,2-c]pyridine-3-carboxamide]	0.0063
CC(=O)N1CCN(c2ccc(NC(=O)c3coc4c3C(=O)NC(C)(C)C4)c(OC(C)C)n2)[C@@H](CO)C1 [Example 139, N-{6-[(2R)-4-acetyl-2-(hydroxymethyl)piperazin-1-yl]-2-isopropoxypyridin-3-yl}-6,6-dimethyl-4-oxo-4,5,6,7-tetrahydrofuro[3,2-c]pyridine-3-carboxamide]	0.0024
CC(C)Oc1nc(N(CCO)CCO)ccc1NC(=O)c1coc2c1C(=O)NC(C)(C)C2 [Example 140, N-{6-[bis(2-hydroxyethyl)amino]-2-isopropoxypyridin-3-yl}-6,6-dimethyl-4-oxo-4,5,6,7-tetrahydrofuro[3,2-c]pyridine-3-carboxamide]	0.0105
COCCOc1ccc(NC(=O)c2coc3c2C(=O)NC(C)(C)C3)c(OCCOC)n1 [Example 141, N-[2,6-bis(2-methoxyethoxy)pyridin-3-yl]-6,6-dimethyl-4-oxo-4,5,6,7-tetrahydrofuro[3,2-c]pyridine-3-carboxamide]	0.0601
COC[C@@H]1CN(c2ccc(NC(=O)c3coc4c3C(=O)NC(C)(C)C4)c(OCC(C)(C)O)n2)CCN1C(C)=O [Example 142, N-{6-[(3S)-4-acetyl-3-(methoxymethyl)piperazin-1-yl]-2-(2-hydroxy-2-methylpropoxy)pyridin-3-yl}-6,6-dimethyl-4-oxo-4,5,6,7-tetrahydrofuro[3,2-c]pyridine-3-carboxamide]	0.0018
CCOc1nc(CCO)ccc1NC(=O)c1coc2c1C(=O)NC(C)(C)C2 [Example 143, N-[2-ethoxy-6-(2-hydroxyethyl)pyridin-3-yl]-6,6-dimethyl-4-oxo-4,5,6,7-tetrahydrofuro[3,2-c]pyridine-3-carboxamide]	0.0246
CCOc1nc(C(=O)O)ccc1NC(=O)c1coc2c1C(=O)N(CCOC)C(C)(C)C2 [Example 145, 6-ethoxy-5-({[5-(2-methoxyethyl)-6,6-dimethyl-4-oxo-4,5,6,7-tetrahydrofuro[3,2-c]pyridin-3-yl]carbonyl}amino)pyridine-2-carboxylic acid]	0.0079

Second part, the molecule after the results:

IC50 [µM]	SMILES
0.0102	CC(C)Oc1nc(N2CC[C@H](N(C)C)C2)ccc1NC(=O)c1coc2c1C(=O)NC(C)(C)C2 [Example 136, N-{6-[(3S)-3-(dimethylamino)pyrrolidin-1-yl]-2-isopropoxypyridin-3-yl}-6,6-dimethyl-4-oxo-4,5,6,7-tetrahydrofuro[3,2-c]pyridine-3-carboxamide]
0.0133	CC(C)Oc1nc(N2CCC[C@H](CO)C2)ccc1NC(=O)c1coc2c1C(=O)NC(C)(C)C2 [Example 137, N-{6-[(3S)-3-(hydroxymethyl)piperidin-1-yl]-2-isopropoxypyridin-3-yl}-6,6-dimethyl-4-oxo-4,5,6,7-tetrahydrofuro[3,2-c]pyridine-3-carboxamide]
0.0492	CCOc1nc(CO)ccc1NC(=O)c1coc2c1C(=O)NC(C)(C)C2 [Example 144, N-[2-ethoxy-6-(hydroxymethyl)pyridin-3-yl]-6,6-dimethyl-4-oxo-4,5,6,7-tetrahydrofuro[3,2-c]pyridine-3-carboxamide]
0.0341	Cn1ncc2cc(NC(=O)c3coc4c3C(=O)CC(C)(C)C4)ccc21 [Example 146, 6,6-dimethyl-N-(1-methyl-1H-indazol-5-yl)-4-oxo-4,5,6,7-tetrahydro-1-benzofuran-3-carboxamide]
0.0324	CC(=O)N1CCN(c2ccc(NC(=O)c3coc4c3C(=O)CC(C)(C)C4)cc2)CC1 [Example 148, N-[4-(4-acetylpiperazin-1-yl)phenyl]-6,6-dimethyl-4-oxo-4,5,6,7-tetrahydro-1-benzofuran-3-carboxamide]
0.135	CC1(C)CC(=O)c2c(C(=O)Nc3ccc(N4CCNCC4)nc3)coc2C1 [Example 149, 6,6-dimethyl-4-oxo-N-[6-(piperazin-1-yl)pyridin-3-yl]-4,5,6,7-tetrahydro-1-benzofuran-3-carboxamide]
0.0432	Cn1cc2cc(NC(=O)c3coc4c3C(=O)CC3(CCC3)C4)ccc2n1 [Example 150, N-(2-methyl-2H-indazol-5-yl)-4-oxo-4,7-dihydro-5H-spiro[1-benzofuran-6,1′-cyclobutane]-3-carboxamide]
0.0634	CC1(C)CC(=O)c2c(C(=O)Nc3ccc(N4CCNCC4)cn3)coc2C1 [Example 151, 6,6-dimethyl-4-oxo-N-[5-(piperazin-1-yl)pyridin-2-yl]-4,5,6,7-tetrahydro-1-benzofuran-3-carboxamide]
0.0358	CC1(C)CC(=O)c2c(C(=O)Nc3ccc(N4CCN(S(C)(=O)=O)CC4)cc3)coc2C1 [Example 152, 6,6-dimethyl-N-{4-[4-(methylsulfonyl)piperazin-1-yl]phenyl}-4-oxo-4,5,6,7-tetrahydro-1-benzofuran-3-carboxamide]
0.0456	CC1(C)CC(=O)c2c(C(=O)Nc3ccc4nn(CCO)cc4c3)coc2C1 [Example 153, N-[2-(2-hydroxyethyl)-2H-indazol-5-yl]-6,6-dimethyl-4-oxo-4,5,6,7-tetrahydro-1-benzofuran-3-carboxamide]
0.074	CC1(C)CC(=O)c2c(C(=O)Nc3ccc4[nH]c(CO)nc4c3)coc2C1 [Example 154, N-[2-(hydroxymethyl)-1H-benzimidazol-5-yl]-6,6-dimethyl-4-oxo-4,5,6,7-tetrahydro-1-benzofuran-3-carboxamide]
